US12427212B2, “Nectin-4 binding miniproteins, conjugates and uses thereof” (Aktis Oncology, Inc., priority 2023, dated 2025)
Entries after “also recorded” stand apart in the source; their conditions may differ. Where two headings read alike, the source gives them in different places. Bridges are numbered along the chain shown (N, C = ends). Primed or numbered codes have the meaning given here. [ ]: non-standard residue; d: D form. The star is where a group is joined. DOTA = O=C(O)CN1CCN(CC(=O)O)CCN(CC(=O)*)CCN(CC(=O)O)CC1; Lys(Me3) = C[N+](C)(C)CCCC[C@H](N)C(=O)O; Cit = NC(=O)NCCC[C@H](N)C(=O)O; PEG4 = NCCOCCOCCOCCOCCC(=O)O; PEG4′ = not defined here

Tests used:
HT-1376 cells = assay: Internalization assay of indium-111 radiolabeled conjugate, HT-1376; assay type: cell-based, human; details: 37° C. or 4° C., 1 h
Procedure: (§1) Internalization was assessed for indium-111 radiolabeled C215 in HT-1376 and MCF7 cells. Cells were incubated in the presence of radioligand or radioligand plus 1000 times excess unlabeled compound (C215) at 37° C., or 4° C. for 1 h. At the end of incubation cells were washed four times with PBS and membrane bound radioligand was removed by three 0.5% trypsin washes. Cell suspensions were washed three times by method of centrifugation and removal of supernatant. Internalized radioactivity was measured by gamma counting cell pellets and cell number was determined by counting cells on an automatic cell counter. […] C215, in HT-1376 (FIG. 6A) and MCF7 cell lines (FIG. 6B).

MCF7 cells = assay: Internalization assay of indium-111 radiolabeled conjugate, MCF7; assay type: cell-based, human; details: 37° C. or 4° C., 1 h
Procedure: as §1

[1] = tested on: HT-1376 urothelial cancer cells; assay: In vitro cell cytotoxicity assay of 225Ac-radioconjugates (CellTiter-Glo); assay type: cell-based, human; details: compound radiolabeled with 225Ac, 24 h treatment, 4-5 day regrowth, HT-1376 cells
Procedure: Cytotoxicity to ^225Ac-radioconjugates was assessed in HT-1376 urothelial cancer cells. Cells were seeded in 96-well plates at densities of 250 to 1000 cells per well two days prior to treatment. On the day of treatment ^225Ac-radioconjugates were diluted in culture medium to concentrations ranging from 0,0001 to 100 μCi/mL and treatment solutions were incubated with cells for 24 h. At the end of the treatment period, the treatment solution was removed, and fresh culture medium was replenished for the regrowth period of the assay that lasted 4-5 day's. At the end of the regrowth period the culture medium was removed and viability was assessed by CellTiter-Glo (Promega, Waltham MA) luminescent assay and the plates were read on a Perkin Elmer Enspire multimode plate reader. Data were normalized to treatment controls and plotted as non-linear sigmoidal dose response curves to determine the effective concentration for 50% reduction in cell viability.

[2] = Thermal stability assay, 75° C., HPLC; assay type: physicochemical; details: 1 mg/mL, 0.9% saline solution
Procedure: The thermal stability of an exemplary compound, C215, was analyzed at a concentration of 1 mg/mL at 75° C., in 0.9% saline solution. A heating plate was set to 75° C. and the sample was heated for a period of one h. The vial was shaken prior to collecting 10 μL aliquots at 5, 10, 15, 30, and 60 minute time intervals. The % parent remaining was analyzed by HPLC using the following system and method: Analytical Agilent 1100 HPLC system using a 4.6×250 mm, 300 Angstrom. BEH300, 5 μm, Xbridge C18 column at 1.0 mL/min. The solvent system consisted of A=Water+0.1% TFA, B=Acetonitrile+0.1% TFA. The gradient consisted of 5% to 70% B over 15 minutes, then the column was washed and equilibrated to initial conditions.

Nectin-4 [3] = molecular target: T1, Nectin-4 (Homo sapiens, UniProt Q96NY8); assay: DELFIA competitive binding assay (Ki) against Eu-labeled C307 on HT-1376 cells; details: in the presence of europium-labeled C307
T1 sequence (Q96NY8 32-510): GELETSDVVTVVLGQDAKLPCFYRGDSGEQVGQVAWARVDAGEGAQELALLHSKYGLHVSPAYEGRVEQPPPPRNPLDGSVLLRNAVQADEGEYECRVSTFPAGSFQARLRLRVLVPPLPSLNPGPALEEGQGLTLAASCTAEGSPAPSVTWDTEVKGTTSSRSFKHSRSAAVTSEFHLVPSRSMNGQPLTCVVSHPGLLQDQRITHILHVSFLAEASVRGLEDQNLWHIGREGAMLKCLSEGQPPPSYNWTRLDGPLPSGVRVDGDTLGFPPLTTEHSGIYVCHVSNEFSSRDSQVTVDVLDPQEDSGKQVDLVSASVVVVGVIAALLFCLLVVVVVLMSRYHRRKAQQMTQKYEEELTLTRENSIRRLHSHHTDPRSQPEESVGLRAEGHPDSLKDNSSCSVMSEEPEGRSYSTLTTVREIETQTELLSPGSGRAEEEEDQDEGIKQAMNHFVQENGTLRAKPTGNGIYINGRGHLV
Procedure: A competition binding assay was utilized to determine the Ki for miniproteins bound to Nectin-4 expressed on the surface of cancer cells. […] Miniprotein incubations occurred for 90 min to reach binding equilibrium. […] After miniprotein incubations, the wells were washed to remove unbound ligand and treated according to manufacturer instructions for a DELFIA® (dissociation-enhanced lanthanide fluorescent immunoassay, Revvity Health Sciences). In brief, washed wells were incubated with 15 μL of 2 M HCl for 2 h at 37° C., after which 17 μL of 2 M NaOH and 30 μL of DELFIA® enhancement solution were added to each well and incubated for an additional 30 min. The remaining Eu reacted with the DELFIA® enhancer solution to generate fluorescence measured on the Envision instrument. Relative fluorescence units (RFUs) were measured as a function of test article concentration in order to calculate an IC50.
A whole cell binding assay was used to estimate the equilibrium binding affinity (KD) or binding inhibition constant (Ki) of miniprotein ligands to cells expressing a target of interest. Cells were dispensed into a 384-well plate and incubated at 37° C., in 5% CO2 overnight. The next day cells were gently washed once in assay buffer prior to addition of europium chelated ligand. […] For Ki determination, a single concentration (KD equivalent concentration) of europium-chelate miniprotein was added to each well followed immediately by the addition of unconjugated competing ligand over 12 different concentrations ranging from 100 times below and above expected Ki values as before. The plate was incubated for 1.5 h at room temperature to reach binding equilibrium. Cells were then washed three times at room temperature with 1×PBS followed by the addition of 2 M HCl and incubated for two h at 37° C. Following this step, 2 M NaOH and fluorescent inducer solution were added to each well and incubated for 30 minutes at room temperature according to the manufacturer's protocol (Perkin-ELMER DELFIA assay). Plates were read on an Envision plate reader and a curve-fitting model was applied to estimate KD and Ki values using GraphPad Prism software.
Engineered Nectin-4 miniproteins with further modified lysine residues (C298-C304; as described in Example 4B) were evaluated for their ability to bind to Nectin-4.

Nectin-4 [4] = molecular target: T1, Nectin-4; assay: Flow cytometry binding to Nectin-4-expressing (HT-1376-P) and knockout (HT-1376-KO) cells; assay type: cell-based; details: biotinylated miniprotein
Procedure: Fluorescent imaging for Nectin-4 binding was conducted using assays as described in Example 3. Briefly. Nectin-4 knockout HT-1376 cells were generated via CRISPR/Cas9 mediated gene deletion followed by single cell cloning. […] Flow cytometry was performed to measure on-target binding to cell surface Nectin-4.

[5] = tested on: un-transfected HEK293 cells; assay: Background binding to un-transfected HEK293 cells (cell microarray suitability); assay type: cell-based, human; details: biotin-labeled molecules
Procedure: To evaluate potential off-target binding, six biotin-labeled molecules were tested in a cell microarray platform having 6,416 different human proteins spanning diverse functions and subcellular locations.

[6] = In vivo biodistribution of 111In-labeled miniproteins by SPECT/CT, HT-1376 xenograft; set-up: species or system mouse; details: female, athymic nude, mouse, in vivo
Summary of the method: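 Uptake in % ID/g from maximum intensity projections of SPECT/CT scans, with SPECT in activity units and CT windowed −500 to 4500 HU. Animals carried HT-1376 tumors, a human Nectin-4-expressing line, and were dosed with 111In-labeled miniproteins.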

[7] = In vitro metabolic stability in serum/plasma (percent parent remaining, LC-MS); assay type: in vitro ADME; details: mouse
Procedure: Exemplary miniproteins were spiked into biological matrices at initial concentration between 1-2 μM. Tested matrices were varied by species (mouse, rat, human) and type (plasma, serum, and kidney brush border membrane (kBBM) preparations tested each from 0.625-100 μg/mL protein content). Tested conditions were incubated with miniproteins at 37° C. for 4 h. At collection points of 0, 15, 30, 60, 120, 240 minutes, 50 μL of each condition were quenched by organic solvent (methanol or acetonitrile) or the addition of 4% phosphoric acid solution followed by solid-phase extraction. Fractions of each quenched timepoint were subsequently assayed for parent miniproteins concentration by high resolution LC-MS. Percent-parent-remaining-time plots were constructed from the ratio of each given time collection to the time-zero parent miniprotein. Percent-parent-remaining in mouse serum and plasma for exemplary miniproteins are recorded in TABLE 11.

[8] = Biodistribution of radiolabeled miniprotein conjugates by SPECT/CT, HT-1376-OE xenograft; details: female, mouse, in vivo, iv, Kidneys; for tissue uptake at 4 h: 4 h (% ID/g) Average; for tissue uptake at 22 h: 22 h (% ID/g) Average
Procedure: 6-8 week old female mice were engrafted through subcutaneous injection with cultured 3.0×10^6 HT-1376-OE cells (1:1—Cells:Matrigel). HT-1376-OE is a model cell line that highly expresses Nectin-4. Fourteen (14) days later, the mice were each dosed with a radiolabeled miniprotein, for example at a dose of ˜350 μCi/3.5 μg miniprotein. SPECT and/or CT imaging of the mice was done at timepoints between 15 min to 24 h after the administration of the injected dose, such as 4 h and 22 h (static scanning). Initial SPECT and/or CT rapid dynamic scanning was done at time points between 15 min and 75 min after the administration of the injected dose. For each miniprotein tested, a group of three mice were used, as summarized below in TABLE 16A.

Compound	EC50 (microcurie/milliliter) for 225Ac radioconjugates [1] [microcurie/milliliter]	tissue uptake at 4 h [6] [%ID/g]	tissue uptake at 24 h [6] [%ID/g]	half-life [7] [h]	half-life ([7]; plasma) [h]	tissue uptake at 4 h [8] [%ID/g]	tissue uptake at 22 h [8] [%ID/g]	other results
C215 ({DOTA-PEG4′}-CEYDEEFFTALKRLRGGDICYYIKKKFKKVPKLCIEEILDKLGC-NH2; cysteine pairing not given here) [Compound C215]	0.086							internalization of radioconjugate (HT-1376 cells): successfully internalized into cells; internalization of radioconjugate (MCF7 cells): successfully internalized into cells; thermal stability, % parent remaining [2]: remain stable over 60 min
C214 ({DOTA-PEG4′}-CEYDEEFFTALKRLRGGDICYYIKKKFDYLPKLCIEEILDNLGC-NH2; disulfide 1-34, 20-44) [Compound C214]	0.014							
CC[C@H](C)[C@@H]1NC(=O)[C@H](Cc2ccc(O)cc2)NC(=O)[C@H](CCC(N)=O)NC(=O)[C@@H]2CSSC[C@@H](C(=O)N[C@@H](CO)C(=O)O)NC(=O)CNC(=O)[C@H](CC(C)C)NC(=O)[C@H](CC(N)=O)NC(=O)[C@H](CC(=O)O)NC(=O)[C@H](CC(C)C)NC(=O)[C@H]([C@@H](C)CC)NC(=O)[C@H](CCC(=O)O)NC(=O)[C@H](CCC(=O)O)NC(=O)[C@H]([C@@H](C)CC)NC(=O)[C@H](CSSC[C@H](NC(=O)CCOCCOCCOCCOCCNC(=O)CCCC[C@@H]3SC[C@@H]4NC(=O)N[C@@H]43)C(=O)N[C@@H](CCC(=O)O)C(=O)N[C@@H](Cc3ccc(O)cc3)C(=O)N[C@@H](CC(=O)O)C(=O)N[C@@H](CCC(=O)O)C(=O)N[C@@H](CCC(=O)O)C(=O)N[C@@H](Cc3ccccc3)C(=O)N[C@@H](Cc3ccccc3)C(=O)N[C@@H]([C@@H](C)O)C(=O)N[C@@H](C)C(=O)N[C@@H](CC(C)C)C(=O)N[C@@H](C)C(=O)N[C@@H](CCCNC(=N)N)C(=O)N[C@@H](CC(C)C)C(=O)N[C@@H](CCCNC(=N)N)C(=O)NCC(=O)NCC(=O)N[C@@H](CC(=O)O)C(=O)N[C@@H]([C@@H](C)CC)C(=O)N2)NC(=O)[C@H](CC(C)C)NC(=O)[C@H](C)NC(=O)[C@@H]2CCCN2C(=O)[C@H](CC(C)C)NC(=O)[C@H](Cc2ccc(O)cc2)NC(=O)[C@H](CCC(N)=O)NC(=O)[C@H](Cc2ccccc2)NC(=O)[C@H](CCCC[N+](C)(C)C)NC(=O)[C@H](C)NC(=O)[C@H](CCC(N)=O)NC1=O [Compound C253]								binding to endogenous Nectin-4 expressed on HT-1376 cells (FIG. 21) (Nectin-4 [3]): high binding affinity; on-target binding to cell surface Nectin-4, HT-1376-P versus HT-1376-KO cells (Nectin-4 [4]): potent and highly selective Nectin-4 targeting agent; also recorded: selective target binding; Background binding to un-transfected HEK293 cells [5]: low-background binding
{DOTA-PEG4}-CEYDEQFFTALKALRGGDICYYIQASFNYLPDLCIEEILDNLGCS-OH (disulfide 1-34, 20-44 (inferred)) [Compound C113]	0.042							tissue uptake at 4 h ([6]; 111In-labeled miniprotein, SPECT/CT, kidneys, 4 h post-dosing, n=3 mice, read-out: Biodistribution, Kidneys, 4 h (% ID/g) Average): 87.9 %ID/g; tissue uptake at 24 h ([6]; 111In-labeled miniprotein, SPECT/CT, kidneys, 24 h post-dosing, n=3 mice, read-out: Biodistribution, Kidneys, 24 h (% ID/g) Average): 42.7 %ID/g
{DOTA-PEG4}-CEYDEEFFTALARLRGGDICQYIQAKFQYLPGQCIEEILDNLGCS-OH (disulfide 1-34, 20-44) [Compound C244]		27.7	15.9	> 12	> 12	29.5	17.8	
{DOTA-PEG4}-CDYDEQFFTALA[Cit]LRGGDICEYIQA[Lys(Me3)]FQYLPGLCIEEILDNLGCS-OH (disulfide 1-34, 20-44 (inferred)) [Compound C260]		12.8	7.36	11.2	> 12	11.6	6.92	
